# Experimental data from patent US8802693B1, “Azaadamantane derivatives and methods of use” (priority 2011, dated 2014).
# Key:
# [1] = test system: subjects with mild-to-moderate Alzheimer's disease; assay: Phase 2a Clinical Study A: ADAS-cog (11-item) total score; assay type: in vivo, human
# Procedure: (§1) A Phase 2a proof-of-concept (POC) study in subjects with mild-to-moderate dementia of Alzheimer type was conducted. The study was a randomized, double-blind, placebo- and active-controlled, multicenter study designed to evaluate the efficacy and safety of Compound A (ABT-126) in subjects diagnosed with mild-to-moderate Alzheimer's disease, defined as meeting National Institute of Neurological and Communicative Disorders and Stroke/Alzheimer's Disease and Related Disorders Association (NINCDS/ADRDA) criteria for probable AD. […] Subjects were randomized in an equal ratio to one of four treatment groups (placebo, 5 mg Compound A, 25 mg Compound A, or donepezil) for a 12-week treatment period. The primary efficacy measure was the Alzheimer's Disease Assessment Scale—cognitive subscale (ADAS-Cog). Subjects were generally in good health and any chronic medical conditions were stable during the time of screening. Subjects were not taking other medication for Alzheimer's disease.
# (§2) The study was a Phase 2, randomized, double-blind, placebo- and active-controlled, multicenter study designed to evaluate the dose-response relationship and safety of two doses of Compound A in subjects diagnosed with mild to moderate AD, defined as meeting NINCDS/ADRDA criteria for probable AD.
# (§3) The study consisted of a Screening Period of up to 28 days, a 12-week treatment period, and a post-treatment period. The screening period consisted of three visits: Screening Visit 1, Screening Visit 2, and Day −1. Upon completion of Day −1 procedures, eligible subjects were randomized through an Interactive Voice Response/Interactive Web-Based (IVR/IWB) system. Subjects were randomized in an equal ratio to one of four treatment groups (placebo, 5 mg Compound A, 25 mg Compound A, or donepezil).
# (§4) Each subject was instructed to take study drug once-daily in the morning for 12 weeks. Subjects randomized to donepezil took 5 mg donepezil QD for the first 4 weeks and began 10 mg donepezil QD at Week 4 through the remainder of the study. The subject and investigator were blinded to the treatment assignment throughout the study.
# Subjects completed 4 visits during the treatment period at Week 2, Week 4, Week 8 and Week 12. Subjects returned to the study site for a follow-up visit approximately 2 weeks after the Week 12 or premature discontinuation visit for a safety evaluation. In addition, study site personnel contacted each subject's caregiver by telephone approximately 30 days after the subject's last dose of study drug to ascertain the subject's safety status.
# (§5) The primary efficacy measure was the Alzheimer's Disease Assessment Scale-cognitive subscale (ADAS-cog). The ADAS-cog was designed to assess the cognitive impairments most common in AD. The ADAS-cog is a subscale of the ADAS, which focuses on cognitive functioning and memory. Two versions were used in the study: an 11-item version and an expanded (13-item) version. The 11-item version of the ADAS-cog was the primary endpoint measure in this study. ADAS-Cog (13-item) was administered throughout the study and the primary efficacy variable was considered the change from baseline to final evaluation on the ADAS-cog total score (11-item).
# The 11-item ADAS-cog includes the following tests: Word Recall, Commands, Constructional Praxis, Naming Objects and Fingers, Ideational Praxis, Orientation, Word Recognition, Remembering Test Instructions, Comprehension of Spoken Language, Spoken Language Ability, and Word Finding Difficulty. The total score of the 11-item ADAS-cog ranges from 0 to 70, with a higher score representing greater impairment.
# The primary efficacy variable was the change from baseline to the final observation on the ADAS-cog (11-item) total score. The primary efficacy analysis was carried out using an ANCOVA model with treatment and study site as the main effects and baseline score as the covariate. […]
# [2] = test system: subjects with mild-to-moderate Alzheimer's disease; assay: Phase 2a Clinical Study A: ADAS-cog (13-item) total score; assay type: in vivo, human
# Procedure: as §1, §2, §3, §4, §5
# The 13-item ADAS-cog is comprised of the 11-item ADAS-cog with two additional items (Delayed Word Recall and a Number Cancellation Test) that are designed to assess attention and concentration. The Delayed Word Recall Test (range from 0 to 10) was an addition to the Word Recall Test to enhance sensitivity of the instrument in assessing cognition functioning on patients with mild AD. The Number Cancellation Test (range from 0 to 5) was reliable and sensitive to a broad range of dementia severity, and was recommended as a useful addition to the 11-item ADAS-cog. The total score of the 13-item ADAS-cog ranges from 0 to 85, with a higher score representing greater impairment. The ADAS-cog (13-item) was administered by a certified rater at Screening Visit 1, Screening Visit 2, and Day-1, as well as Weeks 4, 8, and 12 during the study.
# [3] = donepezil 5 mg QD first 4 weeks then 10 mg QD, ANCOVA, baseline to final evaluation
# [4] = donepezil 5 mg QD first 4 weeks then 10 mg QD, Change to Week 8
# [5] = donepezil 5 mg QD first 4 weeks then 10 mg QD, Change to Week 12
# [6] = donepezil 5 mg QD first 4 weeks then 10 mg QD, MMRM, Week 8
# [7] = donepezil 5 mg QD first 4 weeks then 10 mg QD, MMRM, Week 12
# [8] = donepezil 5 mg QD first 4 weeks then 10 mg QD, final evaluation, 12-week treatment
# [9] = donepezil 5 mg QD, Change to Week 4
# [10] = donepezil 5 mg QD, MMRM, Week 4
compound,measurement,setting,value
"COc1cc2c(cc1OC)C(=O)C(CC1CCN(Cc3ccccc3)CC1)C2 (stereo not shown) [Donepezil, donepezil, reference compound]",ADAS-cog (11-Item) Total Score Difference From Placebo LS Mean (SE) of Difference,[1]; [3],−1.43
same,ADAS-cog (11-Item) Total Score LS Mean (SE) of Change,[1]; [3],−2.11 (0.65)
same,ADAS-cog (11-Item) Total Score Observed Mean (SD) change,[1]; [4],−1.69 (4.96)
same,ADAS-cog (11-Item) Total Score Observed Mean (SD) change,[1]; [5],−2.91 (4.76)
same,ADAS-cog (11-Item) Total Score Difference From Placebo LS Mean (SE) of Difference,[1]; [6],−0.70 (0.83)
same,ADAS-cog (11-Item) Total Score LS Mean (SE) of Change from Baseline,[1]; [6],−1.26 (0.59)
same,ADAS-cog (11-Item) Total Score Difference From Placebo LS Mean (SE) of Difference,[1]; [7],−1.57 (0.91)
same,ADAS-cog (11-Item) Total Score LS Mean (SE) of Change from Baseline,[1]; [7],−2.40 (0.65)
same,ADAS-cog (11-Item) Total Score Observed Mean (SD) Final,[1]; [8],23.21 (11.53)
same,ADAS-cog (11-Item) Total Score Observed Mean (SD) change,[1]; [9],−1.04 (3.53)
same,ADAS-cog (11-Item) Total Score Difference From Placebo LS Mean (SE) of Difference,[1]; [10],−0.68 (0.65)
same,ADAS-cog (11-Item) Total Score LS Mean (SE) of Change from Baseline,[1]; [10],−0.78 (0.47)
same,"cognition relative to placebo, ADAS-cog (11-item) MMRM (in words)",[1]; donepezil treatment group,cognitive improvement relative to placebo
same,ADAS-cog (13-Item) Total Score Difference From Placebo LS Mean (SE) of Difference,[2]; [3],−2.49 (1.04)
same,ADAS-cog (13-Item) Total Score LS Mean (SE) of Change,[2]; [3],−3.27 (0.74)
same,ADAS-cog (13-Item) Total Score Observed Mean (SD) change,[2]; [4],−2.66 (5.48)
same,ADAS-cog (13-Item) Total Score Observed Mean (SD) change,[2]; [5],−4.17 (4.94)
same,ADAS-cog (13-Item) Total Score Difference From Placebo LS Mean (SE) of Difference,[2]; [6],−1.85 (0.98)
same,ADAS-cog (13-Item) Total Score LS Mean (SE) of Change from Baseline,[2]; [6],−2.20 (0.70)
same,ADAS-cog (13-Item) Total Score Difference From Placebo LS Mean (SE) of Difference,[2]; [7],−2.48 (1.06)
same,ADAS-cog (13-Item) Total Score LS Mean (SE) of Change from Baseline,[2]; [7],−3.61 (0.76)
same,ADAS-cog (13-Item) Total Score Observed Mean (SD) Final,[2]; [8],33.90 (13.37)
same,ADAS-cog (13-Item) Total Score Observed Mean (SD) change,[2]; [9],−1.84 (3.94)
same,ADAS-cog (13-Item) Total Score Difference From Placebo LS Mean (SE) of Difference,[2]; [10],−1.53 (0.74)
same,ADAS-cog (13-Item) Total Score LS Mean (SE) of Change from Baseline,[2]; [10],−1.53 (0.53)
